Converted amounts (≈) assume the structure as drawn. Where two headings read alike, the source gives them in different places.
Columns and labels:
DLD1 cells = settings: DLD1, 48 h, cited from earlier work
A375 cells = system: A375 cells; design: method as in PMID 34577645; settings: A375, 48 h; cited from earlier work
MDA-MB-231 cells = settings: cited from earlier work
DLD-1 = experiment: MTT viability assay, DLD-1 colon cancer cells; format: cell-based, human; settings: for Cell viability: DLD-1, 24 h; for IC50: Homo sapiens
Excerpt: (§1) Cell lines of different origins were used in the study and grouped as follows: prostate panel (human prostate carcinomas: DU145, derived from metastatic site: brain; grade IV PC3, derived from metastatic site: bone; LNCaP, derived from the metastatic site: lymph node; prostate epithelial, PNT2), colon panel (colorectal adenocarcinomas: HT29, originating from a primary tumor; Duke’s type C DLD-1, with the potential to lymph node metastasis; highly metastatic HCT116; colon epithelial cells CCD 841 CoN), thyroid panel (follicular thyroid carcinoma FTC133, anaplastic thyroid carcinoma 8505C, papillary thyroid carcinoma TPC-1, normal thyroid follicular epithelial Nthy-ori 3–1), breast panel (ER-positive breast adenocarcinoma MCF7, ER-negative breast adenocarcinoma MDA-MB-231, breast epithelial MCF10A), brain panel (neuroblastoma SH-SY5Y, glioblastoma U-87 MG, murine astrocytes C8D1A). All cell lines were purchased from Merck (Darmstadt, Germany).
(§2) Cells were grown under standard conditions (37 °C, 5% CO2) and culture media (DMEM/F12 for PNT2, PC3, FTC133, 8505 C, MDA-MB-231, TPC-1; DMEM Low Glucose for DU145; DMEM High Glucose for HCT116, DLD-1, SH-SY5Y, U87MG, C8D1A; MEM with NEAA for MCF7; MEM for CCD 841 CoN; McCoy’s for HT29; RPMI1640 with sodium pyruvate for LNCaP; DMEM/F12 with 20 ng/mL epidermal growth factor (EGF), 10 μg/mL insulin, 0.5 μg/mL hydrocortisone, 100 ng/mL cholera toxin) for MCF10A), supplemented with 10% fetal bovine serum (FBS) or 5% donor horse serum for MCF10A, and 1% antibiotics solution (10,000 U penicillin and 10 mg streptomycin/mL). The tested substances were prepared as 10 mg/mL stock solutions in DMSO and further diluted in the culture media to the working concentrations. Cells were treated with UA enantiomers at the concentration range of 0–50 µg/mL. The influence of DMSO on cell viability was also examined, with the final concentration […], and no toxic effect was noted.
(§3) The cells were seeded onto 96-well plates at a density of 1.5 × 10^4 cells/well. After 24 h UA enantiomers were added. Cell viability was determined after 24, 48, and 72 h by the MTT assay, as described previously. Doxorubicin was used as a reference cytostatic drug. All analyses were performed in triplicate; cell viability was expressed as % of control, untreated cells (mean ± SD), and IC50 values (concentration at which cell viability is inhibited by 50%), if possible.

[1] = system: SH-SY5Y neuroblastoma cells; settings: cited from earlier work
MDA-MB-231 = experiment: MTT viability assay, MDA-MB-231 breast cancer cells; format: cell-based, human; settings: for IC50: Homo sapiens; for Cell viability: MDA-MB-231, 24 h
Excerpt: as §1, §2, §3
The selectivity index (SI) was calculated, if possible, by dividing the IC50 value obtained for non-cancerous cells line by the IC50 values obtained for appropriate cancer cell line, as described previously. […] The values above 3 indicate good selectivity.

HT29 cells = settings: cited from earlier work
HTB140 cells = system: HTB140 cells; design: method as in PMID 34577645; settings: HTB140, 48 h (implied); cited from earlier work
glioblastoma U251 cells = system: glioblastoma U251 cells; design: method as in PMID 18558490; settings: U251, 72 h, cited from earlier work
HCT116 cells = settings: cited from earlier work
U87MG cells = settings: cited from earlier work; for CC50: 24 h
LNCaP cells = system: LNCaP cells; design: method as in PMID 30101414; settings: 48 h, cited from earlier work
HaCaT keratinocytes = system: HaCaT keratinocytes; design: method as in PMID 34500657; settings: cited from earlier work
A172 = system: A172; design: method as in PMID 34959693; settings: cited from earlier work
T98G = system: T98G; design: method as in PMID 34959693; settings: cited from earlier work
[2] = recalculated from µM by the authors

Compound: CC(=O)C1=C(O)C=C2Oc3c(C(C)=O)c(O)c(C)c(O)c3[C@@]2(C)C1=O [UA(+), (+)-usnic acid]
- IC50 (DLD1 cells; [2]): 34.4 µg/mL
- IC50 (DLD1 cells; read-out: IC50): 100 µM
- IC50 (A375 cells): 11.84 µg/mL (≈ 34.4 µM)
- IC50 (MDA-MB-231 cells; MDA-MB-231, 24 h, recalculated from µM by the authors): 13.23 µg/mL
- IC50 (MDA-MB-231 cells; MDA-MB-231, 24 h, read-out: IC50): 38.4 µM
- IC50 (MDA-MB-231 cells; MDA-MB-231, 72 h, recalculated from µM by the authors): 4.5 µg/mL
- IC50 (MDA-MB-231 cells; MDA-MB-231, 72 h, read-out: IC50): 13.1 µM
- Cell viability (DLD-1; 2.5 µg/mL): 96.51 % of control
- Cell viability (DLD-1; 5 µg/mL): 89.29 % of control
- Cell viability (DLD-1; 10 µg/mL): 75.63 % of control
- Cell viability (DLD-1; 20 µg/mL): 82.11 % of control
- Cell viability (DLD-1; 30 µg/mL): 71.08 % of control
- Cell viability (DLD-1; 40 µg/mL): 68.28 % of control
- Cell viability (DLD-1; 50 µg/mL): 68.46 % of control
- IC50 (DLD-1; DLD-1, 48 h): 26.1 µg/mL (≈ 75.8 µM)
- IC50 (DLD-1; DLD-1, 72 h): 19.6 µg/mL (≈ 56.9 µM)
- Cell viability ([1]; at 2 µg/mL): 42%
- Cell viability ([1]; at 10 µg/mL): 57%
- IC50 (MDA-MB-231; MDA-MB-231, 48 h): > 50 µg/mL
- IC50 (MDA-MB-231; MDA-MB-231, 72 h): 15.8 µg/mL (≈ 45.9 µM)
- selectivity index (SI) (MDA-MB-231; IC50 MCF10A / IC50 MDA-MB-231, 72 h): 2.83
- Cell viability (MDA-MB-231; 2.5 µg/mL): 100.36 % of control
- Cell viability (MDA-MB-231; 5 µg/mL): 95.55 % of control
- Cell viability (MDA-MB-231; 10 µg/mL): 87.62 % of control
- Cell viability (MDA-MB-231; 20 µg/mL): 81.99 % of control
- Cell viability (MDA-MB-231; 30 µg/mL): 77.62 % of control
- Cell viability (MDA-MB-231; 40 µg/mL): 67.93 % of control
- Cell viability (MDA-MB-231; 50 µg/mL): 69.24 % of control
- IC50 (HT29 cells; HT29, recalculated from µM by the authors, ref 21): 24.1 µg/mL
- IC50 (HT29 cells; HT29, recalculated from µM by the authors, ref 22): 34.3 µg/mL
- IC50 (HT29 cells; HT29, ref 21, read-out: IC50): 70 µM
- IC50 (HT29 cells; HT29, ref 22, read-out: IC50): 99.7 µM
- IC50 (HTB140 cells): 14.72 µg/mL (≈ 42.8 µM)
- IC50 (glioblastoma U251 cells; [2]): 6.7 µg/mL
- IC50 (glioblastoma U251 cells; read-out: IC50): 19.5 µM
- IC50 (HCT116 cells; HCT116, 48 h, recalculated from µM by the authors): 34.4 µg/mL
- IC50 (HCT116 cells; HCT116, 48 h, read-out: IC50): 100 µM
- IC50 (HCT116 cells; HCT116, 72 h, recalculated from µM by the authors): 49.24 µg/mL
- IC50 (HCT116 cells; HCT116, 72 h, read-out: IC50): 143 µM
- CC50 (U87MG cells; read-out: CC50): 47 µM
- CC50 (U87MG cells; [2]): 16 µg/mL
- IC50 (U87MG cells; 48 h): 41.5 µg/mL (≈ 121 µM)
- IC50 (LNCaP cells; read-out: IC50): 77.5 µM
- IC50 (LNCaP cells; [2]): 26.7 µg/mL

Compound: CC(=O)C1=C(O)C=C2Oc3c(C(C)=O)c(O)c(C)c(O)c3[C@]2(C)C1=O [UA(−), (−)-usnic acid]
- Cell viability (DLD-1; 2.5 µg/mL): 100.75 % of control
- Cell viability (DLD-1; 5 µg/mL): 97.99 % of control
- Cell viability (DLD-1; 10 µg/mL): 92.05 % of control
- Cell viability (DLD-1; 20 µg/mL): 81.25 % of control
- Cell viability (DLD-1; 30 µg/mL): 78.35 % of control
- Cell viability (DLD-1; 40 µg/mL): 77.75 % of control
- Cell viability (DLD-1; 50 µg/mL): 77.98 % of control
- IC50 (DLD-1; DLD-1, 48 h): 44.3 µg/mL (≈ 129 µM)
- IC50 (DLD-1; DLD-1, 72 h): 15.4 µg/mL (≈ 44.7 µM)
- IC50 (HaCaT keratinocytes; 48 h): 80.82 µg/mL (≈ 235 µM)
- IC50 (HaCaT keratinocytes; 72 h): 70.12 µg/mL (≈ 204 µM)
- IC50 (A172): 31.5 µg/mL (≈ 91.5 µM)
- IC50 (MDA-MB-231; MDA-MB-231, 48 h): 41.4 µg/mL (≈ 120 µM)
- IC50 (MDA-MB-231; MDA-MB-231, 72 h): 20.2 µg/mL (≈ 58.7 µM)
- Cell viability (MDA-MB-231; 2.5 µg/mL): 96.79 % of control
- Cell viability (MDA-MB-231; 5 µg/mL): 92.06 % of control
- Cell viability (MDA-MB-231; 10 µg/mL): 88.24 % of control
- Cell viability (MDA-MB-231; 20 µg/mL): 85.58 % of control
- Cell viability (MDA-MB-231; 30 µg/mL): 74.48 % of control
- Cell viability (MDA-MB-231; 40 µg/mL): 68.12 % of control
- Cell viability (MDA-MB-231; 50 µg/mL): 70.55 % of control
- IC50 (HT29 cells; HT29, 48 h, recalculated from µM by the authors): 18.9 µg/mL
- IC50 (HT29 cells; HT29, 48 h, read-out: IC50): 55 µM
- IC50 (glioblastoma U251 cells; [2]): 6.8 µg/mL
- IC50 (glioblastoma U251 cells; read-out: IC50): 19.7 µM
- IC50 (T98G): 13 µg/mL (≈ 37.8 µM)

Source: paper PMC12298648, “An Evaluation of the Cytotoxicity and Safety Profile of Usnic Acid for a Broad Panel of Human Cancers and Normal Cells with Respect to Its Enantiospecificity” (Molecules, 2025)
